Laboratory results published in patent US12138256B2, “Treatment of cardiopulmonary disorders” (Bayer Aktiengesellschaft, priority 2021, dated 2024).

Test system: isolated Langendorff-perfused rat heart
Assay: Isolated perfused heart according to Langendorff: perfusion pressure and wash-out score (C-1.2)
Settings: for wash-out score: PP recovery after 60 min of washout related to maximum drop of PP; for wash-out score / effect on perfusion pressure (PP): comparative example 11 300 nmol/l, others 100 nmol/l, n=6; for Perfusion pressure (%) (timepoint at 20 min) Mean: isolated Langendorff-perfused rat heart; for Perfusion pressure (%) (timepoint at 90 min) Mean: wash-out phase
Experimental: Male Wistar rats (strain HsdCpb:WU) with a body weight of 200-250 g were anaesthetized with Narcoren® (100 mg/kg). The thorax was opened and the heart was then exposed, excised and connected to a Langendorff apparatus by placing a cannula into the aorta. The heart was perfused retrogradely at 9 ml/min at constant flow with a Krebs-Henseleit buffer solution (gassed with 95% O2 and 5% CO2, pH 7.4, 35° C.; composition in mmol/l: NaCl 118; KCl 3; NaHCO3 22; KH2PO4 1.2; MgSO4 1.2; CaCl2 1.8; Glucose 10; Na pyruvate 2). A pressure transducer registered the perfusion pressure in the perfusion system. The left ventricular pressure (LVP) was measured using a second pressure transducer connected to a water-filled balloon which was inserted into the left ventricle via the left atrium. The end diastolic pressure was initially set to 8 mm Hg by adjusting the volume of the balloon. The hearts were spontaneously beating. The signals from the pressure transducer were amplified, registered by a personal computer (Powerlab Chart software, ADInstruments).
Then the hearts were perfused for a further 120 min without the test substance (wash-out phase). The reversibility of the effect (wash-out score) was calculated as a percentage of the PP recovery after 60 min of washout related to the maximum drop of PP induced by the test compound. The wash-out score obtained in this manner was taken as a measure for the residence time of the test substance at the site of action.

Row | SMILES | wash-out score | effect on perfusion pressure (PP) | Wash-out score (%) after 60 min (300 nmol/l) | Perfusion pressure (%) (timepoint at 20 min) Mean (300 nmol/l) | Perfusion pressure (%) (timepoint at 90 min) Mean (300 nmol/l) | Wash-out score (%) after 60 min (100 nmol/l) | Perfusion pressure (%) (timepoint at 20 min) Mean (100 nmol/l) | Perfusion pressure (%) (timepoint at 90 min) Mean (100 nmol/l)
1 | O=C(O)CCCCN(CCc1ccccc1OCc1ccc(CCc2ccccc2)cc1)Cc1ccc(C(=O)O)cc1 [comparative example 1, 4-[((4Carboxybutyl)-{2-[(4-phenethylbenzyl)oxy]phenethyl}amino)methyl]benzoic acid] | 30% | pronounced reduction of perfusion pressure | – | – | – | – | – | –
2 | O=C(O)c1ccc(CCN(CCc2ccccc2OCc2ccc(-c3ccc(C(F)(F)F)cc3)cc2Cl)[C@H]2CCCc3nc(C(=O)O)ccc32)cc1 [comparative example 11, (5S)-5-{[2-(4-carboxyphenyl)ethyl][2-(2-{[3-chloro-4′-(trifluoromethyl)[biphenyl]-4-yl]methoxy}phenyl)ethyl]amino}-5,6,7,8-tetrahydroquinoline-2-carboxylic acid] | 2.9% | pronounced reduction of perfusion pressure | 2.9% | 69.0% | 71.9% | – | – | –
3 | O=C(O)CCCCN(CCc1cc(F)ccc1OCc1ccc(-c2nc3cc(Cl)ccc3o2)cc1)C1CCCc2nc(C(=O)O)ccc21 (single isomer, unassigned) [comparative example 3, (5)-{(4-carboxybutyl)[2-(2-{[4-(5-chloro-1,3-benzoxazol-2-yl)benzyl]oxy}-5-fluorophenyl)ethyl]amino}-5,6,7,8-tetrahydroquinoline-2-carboxylic acid] | 25.4% | pronounced reduction of perfusion pressure | – | – | – | 25.4% | 63.3% | 72.5%
